Data taken from patent US8168800B2, “Aβ-binding small molecules” (The Regents of the University of California, priority 2007, dated 2012).

Tested on: binding of AβO to synapses of cultured mouse hippocampal neurons
Assay: Synaptic binding assay
Assay type: cell-based
Settings: 100 nM AβO: 1 μM compound, neurons 21 days in vitro
Method: The strong binding of AβO to synapses induces aberration in synapse composition, shape, and density, and was proposed as the molecular basis for the loss of connectivity in AD (see, Lacor, et al., J. Neurosci. (2007) 27:796-807). A synaptic binding assay was performed as described by Lacor et al. (2007), which is incorporated herein by reference, with minor modifications to test the effectiveness of a compound of Formula I (e.g., Compound A) to reduce or to prevent the binding of AβO to synapses. AβO prepared from the N-terminal biotinylated Aβ1-42 peptide was incubated either with 10 equivalents compounds (i.e., 100 nM AβO: 1 μM Compound A), or with DMSO (i.e., the solvent for the compounds used only as a negative control) for five minutes, then added to cultured mouse hippocampal neurons that had been cultured 21 days in vitro. After 5 minute incubation, the neurons were washed, fixed, and stained with streptavidin-Alexa594 for bound AβO. […] The density of puncta per unit dendritic area was quantified using the Image J program and the resulting bar graph is presented in the far right panel.

Structure (SMILES)	fluorescent puncta (AβO bound to synapses)
Nc1c(/N=N/c2ccc(-c3ccc(/N=N/c4cc(S(=O)(=O)O)c5ccccc5c4N)cc3)cc2)cc(S(=O)(=O)O)c2ccccc12 [Congo Red]	substantially reduced number of puncta

Tested on: MC65 cells
Assay: MC65 cell protection (cell viability) assay;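 also: intraneuronal AβO toxicity triggered by withdrawing tetracycline, which suppresses the C99 transgene, MTT formazan viability read-out, with tetracycline-maintained cultures taken as 100%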
Settings: not given

Structure (SMILES)	protection of MC65 cells from death
Cc1c(C(N)=O)c(=O)oc2cc3c(cc12)nc(Nc1ccccc1Br)n3CCOc1ccccc1 [Compound C, 2-(2-Bromo-phenylamino)-8-methyl-6-oxo-3-(2-phenoxy-ethyl)-3,6-dihydro-chromeno[6,7-d]imidazole-7-carboxylic acid amide]	inactive
NC(=O)[C@H](Cc1ccc(O)c(O)c1)NC(=O)c1ccc2c(c1)nc(Nc1cccc(Br)c1)n2CCOc1ccccc1 [LRL 13, (S)—N-(1-amino-3-(3,4-dihydroxyphenyl)-1-oxopropan-2-yl)-2-(3-bromophenylamino)-1-(2-phenoxyethyl)-1H-benzo[d]imidazole-5-carboxamide, reference compound]	protect MC65 cells from death
NC(=O)c1ccc2c(c1)nc(Nc1ccc(I)cc1)n2CCOc1ccccc1 [LRL 19, 2-(4-iodophenylamino)-1-(2-phenoxyethyl)-1H-benzo[d]imidazole-5-carboxamide, reference compound]	protect MC65 cells from death

Same assay, conditions: MC65

Structure (SMILES)	EC50
Cc1c(C(N)=O)c(=O)oc2cc3c(cc12)nc(Nc1cccc(Br)c1)n3CCOc1ccccc1 [D.1]	< 1000 nM
Cc1c(C(N)=O)c(=O)oc2cc3c(cc12)nc(Nc1ccc(I)cc1)n3CCOc1ccccc1 [D.2]	< 1000 nM
Cc1c(C(N)=O)c(=O)oc2cc3c(cc12)nc(Nc1ccccc1Br)n3CCOc1ccccc1 [D.3]	> 10000 nM
C#CCn1c(Nc2cccc(I)c2)nc2cc3c(C)c(C(N)=O)c(=O)oc3cc21 [D.4]	1000 to 10000 nM
Cc1c(C(N)=O)c(=O)oc2cc3c(cc12)nc(Nc1cccc(I)c1)n3CCO [D.5]	> 10000 nM
COCCn1c(Nc2cccc(I)c2)nc2cc3c(C)c(C(N)=O)c(=O)oc3cc21 [D.6]	> 10000 nM
COc1ccc(CCn2c(Nc3cccc(I)c3)nc3cc4c(C)c(C(N)=O)c(=O)oc4cc32)cc1 [D.7]	< 1000 nM
Cc1c(C(N)=O)c(=O)oc2cc3c(cc12)nc(Nc1cccc(I)c1)n3CCc1ccc(Br)cc1 [D.8]	< 1000 nM
Cc1c(C(N)=O)c(=O)oc2cc3c(cc12)nc(Nc1cccc(I)c1)n3CCOc1ccccc1 [D.9]	< 1000 nM
COc1ccc(Nc2nc3cc4c(C)c(C(N)=O)c(=O)oc4cc3n2CCOc2ccccc2)cc1 [D.10]	< 1000 nM
Cc1c(C(N)=O)c(=O)oc2cc3c(cc12)nc(Nc1cccc(I)c1)n3C [D.11]	1000 to 10000 nM
CCCn1c(Nc2cccc(I)c2)nc2cc3c(C)c(C(N)=O)c(=O)oc3cc21 [D.12]	< 1000 nM
Cc1c(C(N)=O)c(=O)oc2cc3c(cc12)nc(Nc1cccc(I)c1)n3CC1CC1 [D.13]	< 1000 nM
Cc1c(C(N)=O)c(=O)oc2cc3c(cc12)nc(Nc1cccc(I)c1)n3CC(F)F [D.14]	1000 to 10000 nM
Cc1c(C(N)=O)c(=O)oc2cc3c(cc12)nc(Nc1cccc(I)c1)n3Cc1cccc(I)c1 [D.15]	< 1000 nM
COc1ccc(Nc2nc3cc4c(C)c(C(N)=O)c(=O)oc4cc3n2Cc2cccc(I)c2)cc1 [D.16]	< 1000 nM
COc1cccc(Nc2nc3cc4c(C)c(C(N)=O)c(=O)oc4cc3n2Cc2cccc(I)c2)c1 [D.17]	< 1000 nM
CSc1cccc(Nc2nc3cc4c(C)c(C(N)=O)c(=O)oc4cc3n2Cc2cccc(I)c2)c1 [D.18]	< 1000 nM

Structure (SMILES)	EC50
COc1ccc(Nc2nc3cc4c(C)c(C(N)=O)c(=O)oc4cc3n2Cc2cccc(I)c2)c(OC)c1 [D.19]	< 1000 nM
COc1ccc(Nc2nc3cc4c(C)c(C(N)=O)c(=O)oc4cc3n2Cc2cccc(Br)c2)cc1 [D.20]	< 1000 nM
COc1ccc(Nc2nc3cc4c(C)c(C(N)=O)c(=O)oc4cc3n2Cc2cccc(F)c2)cc1 [D.21]	< 1000 nM
COc1ccc(Nc2nc3cc4c(C)c(C(N)=O)c(=O)oc4cc3n2Cc2cccc(Cl)c2)cc1 [D.22]	< 1000 nM
COc1ccc(Nc2nc3cc4c(C)c(C(N)=O)c(=O)oc4cc3n2Cc2ccc(Cl)cc2)cc1 [D.23]	< 1000 nM
COc1ccc(Nc2nc3cc4c(C)c(C(N)=O)c(=O)oc4cc3n2Cc2ccc(Br)cc2)cc1 [D.24]	< 1000 nM
COc1ccc(Nc2nc3cc4c(C)c(C(N)=O)c(=O)oc4cc3n2Cc2ccc(I)cc2)cc1 [D.25]	< 1000 nM
COc1ccc(Nc2nc3cc4c(C)c(C(N)=O)c(=O)oc4cc3n2CCc2ccc(Br)cc2)cc1 [D.26]	< 1000 nM
COc1ccc(Nc2nc3cc4c(C)c(C(N)=O)c(=O)oc4cc3n2CCc2cccc(Cl)c2)cc1 [D.27]	< 1000 nM
Cc1c(C(N)=O)c(=O)oc2cc3c(cc12)nc(Nc1ccc(OC(F)(F)F)cc1)n3Cc1cccc(Cl)c1 [D.28]	< 1000 nM
Cc1c(C(N)=O)c(=O)oc2cc3c(cc12)nc(Nc1ccc(OC(F)(F)F)cc1)n3Cc1cccc(Br)c1 [D.29]	< 1000 nM
Cc1c(C(N)=O)c(=O)oc2cc3c(cc12)nc(Nc1ccc(OC(F)(F)F)cc1)n3Cc1cccc(I)c1 [D.30]	< 1000 nM
Cc1c(C(N)=O)c(=O)oc2cc3c(cc12)nc(Nc1ccc(OC(F)(F)F)cc1)n3Cc1ccc(Cl)cc1 [D.31]	< 1000 nM
Cc1c(C(N)=O)c(=O)oc2cc3c(cc12)nc(Nc1ccc(OC(F)(F)F)cc1)n3Cc1ccc(Br)cc1 [D.32]	< 1000 nM
COc1ccc(Nc2nc3cc4c(C)c(C(N)=O)c(=O)oc4cc3n2-c2cccc(Br)c2)cc1 [D.33]	> 10000 nM
Cc1c(C(N)=O)c(=O)oc2cc3c(cc12)nc(Nc1ccc(C#N)cc1)n3Cc1ccc(Br)cc1 [D.34]	< 1000 nM
Cc1c(C(N)=O)c(=O)oc2cc3c(cc12)nc(Nc1ccc(C#N)cc1)n3Cc1ccc(I)cc1 [D.35]	< 1000 nM

Tested on: SDS-stable AβO in MC65 cells
Assay: SDS-PAGE and Western blot (6E10) of MC65 cell homogenates
Assay type: cell-based
Settings: 1 μM, 24 hour cultures, 6E10 Western blot
Excerpt: See, Maezawa et al. J Neurochem (2006) 98:57-67, which is incorporated herein by reference.

Structure (SMILES)	levels of SDS-stable AβO
NC(=O)[C@H](Cc1ccc(O)c(O)c1)NC(=O)c1ccc2c(c1)nc(Nc1cccc(Br)c1)n2CCOc1ccccc1 [LRL 13, (S)—N-(1-amino-3-(3,4-dihydroxyphenyl)-1-oxopropan-2-yl)-2-(3-bromophenylamino)-1-(2-phenoxyethyl)-1H-benzo[d]imidazole-5-carboxamide, reference compound]	decreased the levels of SDS-stable AβO
NC(=O)c1ccc2c(c1)nc(Nc1ccc(I)cc1)n2CCOc1ccccc1 [LRL 19, 2-(4-iodophenylamino)-1-(2-phenoxyethyl)-1H-benzo[d]imidazole-5-carboxamide, reference compound]	decreased the levels of SDS-stable AβO

Biological target: T1, AβO (Homo sapiens, UniProt P05067)
T1 construct: prepared by mixing a 1:10 ratio of biotinylated and unbiotinylated Aβ1-42 peptide
T1 sequence (P05067 672-713 limits assumed): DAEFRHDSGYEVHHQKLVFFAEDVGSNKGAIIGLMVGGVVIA
Assay: Electron microscopy (EM) of AβO size
Assay type: biochemical
Settings: 24 hour incubation at 25° C.
Method: To address the possible alternative explanation that the depolymerization effect observed for Compound A in the AFM experiment is due to Compound A altered binding of AβO to the AFM mica, the effect of Compound A and Compound B and Congo Red on AβO size was further analyzed by electron microscopy (EM) (see FIG. 5A and FIG. 5B). […] The representative electron micrographs presented in FIG. 5A show the size of the AβO aggregates after incubation with either Compound A, Compound B or Congo Red. FIG. 5B contains a histogram, which illustrates the size distribution of AβO without treatment or with treatment with Compound A, Compound B or Congo Red. It is apparent from EM images in FIG. 5A and in the histograms shown in FIG. 5B that after 24 hour incubation at 25° C. and in the absence of treatment with Compound A or Congo Red, AβO grew in size.

Structure (SMILES)	effect on number and size of AβO
Nc1c(/N=N/c2ccc(-c3ccc(/N=N/c4cc(S(=O)(=O)O)c5ccccc5c4N)cc3)cc2)cc(S(=O)(=O)O)c2ccccc12 [Congo Red]	reduction in the number and size of AβO

Tested on: AβO cytotoxicity
Assay: Rapid MTT formazan exocytosis (MTT-FE) assay
Assay type: cell-based
Settings: AβO:Compound 1:0 to 1:4, 1 hour, TS-/TI-MTT
Method: In the rapid MTT formazan exocytosis (MTT-FE) assay, AβO was combined with LRL 03, LRL 15, Compound A or Congo Red (2.5 μM solution) at a ratio of 1:0, 1:1, 1:2 or 1:4 (AβO:Compound) and incubated for 1 hour, followed by measurement of the degree of formazan exocytosis. […] In particular, cellular MTT formazan was fractionated into the Triton soluble (TS) and insoluble (TI) MTT and quantified and shown in FIG. 7B.

Structure (SMILES)	neutralization of AβO cytotoxicity
Nc1c(/N=N/c2ccc(-c3ccc(/N=N/c4cc(S(=O)(=O)O)c5ccccc5c4N)cc3)cc2)cc(S(=O)(=O)O)c2ccccc12 [Congo Red]	able to neutralize AβO cytotoxicity
